Publication PMC4490784, “Compensatory induction of MYC expression by sustained CDK9 inhibition via a BRD4-dependent mechanism” (eLife, 2015)

Tests used:
Experiment in all cases: KINOMEscan binding assay
EPHB3 = target: T1, EPHB3 (Homo sapiens, UniProt P54753); conditions: read-out: % Retention on Solid Support
T1 construct: purchased DiscoveRx KINOMEscan
Method in brief: (§1)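 Binding, not catalytic activity, is measured: the compound competes with an active-site-directed ligand. Screening concentrations were 1 and 10 µM, applied across more than 400 kinases.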

PIM3 = target: T2, PIM3 (Homo sapiens, UniProt Q86V86); conditions: read-out: % Retention on Solid Support
T2 construct: purchased DiscoveRx KINOMEscan
Method in brief: as §1

AKT3 = target: T3, AKT3 (Homo sapiens, UniProt Q9Y243); conditions: read-out: % Retention on Solid Support
T3 construct: purchased DiscoveRx KINOMEscan
Method in brief: as §1

FLT3(N841I) = target: T4, FLT3(N841I) (Homo sapiens, UniProt P36888, N841I); conditions: read-out: % Retention on Solid Support
T4 construct: purchased DiscoveRx KINOMEscan
Method in brief: as §1

WEE1 = target: T5, WEE1 (Homo sapiens, UniProt P30291); conditions: read-out: % Retention on Solid Support
T5 construct: purchased DiscoveRx KINOMEscan
Method in brief: as §1

FES = target: T6, FES (Homo sapiens, UniProt P07332); conditions: read-out: % Retention on Solid Support
T6 construct: purchased DiscoveRx KINOMEscan
Method in brief: as §1

TIE1 = target: T7, TIE1 (Homo sapiens, UniProt P35590); conditions: read-out: % Retention on Solid Support
T7 construct: purchased DiscoveRx KINOMEscan
Method in brief: as §1

JNK2 = target: T8, JNK2 (Homo sapiens, UniProt P45984)
T8 construct: purchased DiscoveRx KINOMEscan
Method in brief: as §1

ERBB2 = target: T9, ERBB2 (Homo sapiens, UniProt P04626); conditions: read-out: % Retention on Solid Support
T9 construct: purchased DiscoveRx KINOMEscan
Method in brief: as §1

MLK3 = target: T10, MLK3 (Homo sapiens, UniProt Q16584)
T10 construct: purchased DiscoveRx KINOMEscan
Method in brief: as §1

ERK1 = target: T11, ERK1 (Homo sapiens, UniProt P27361); conditions: read-out: % Retention on Solid Support
T11 construct: purchased DiscoveRx KINOMEscan
Method in brief: as §1

TRKA = target: T12, TRKA (Homo sapiens, UniProt P04629); conditions: read-out: % Retention on Solid Support
T12 construct: purchased DiscoveRx KINOMEscan
Method in brief: as §1

PRKCD = target: T13, PRKCD (Homo sapiens, UniProt Q05655); conditions: read-out: % Retention on Solid Support
T13 construct: purchased DiscoveRx KINOMEscan
Method in brief: as §1

PRKD1 = target: T14, PRKD1 (Homo sapiens, UniProt Q15139); conditions: read-out: % Retention on Solid Support
T14 construct: purchased DiscoveRx KINOMEscan
Method in brief: as §1

NEK1 = target: T15, NEK1 (Homo sapiens, UniProt Q96PY6); conditions: read-out: % Retention on Solid Support
T15 construct: purchased DiscoveRx KINOMEscan
Method in brief: as §1

SRPK3 = target: T16, SRPK3 (Homo sapiens, UniProt Q9UPE1); conditions: read-out: % Retention on Solid Support
T16 construct: purchased DiscoveRx KINOMEscan
Method in brief: as §1

CDK11 = target: T17, CDK11 (Homo sapiens, UniProt Q9BWU1)
T17 construct: purchased DiscoveRx KINOMEscan
Method in brief: as §1

EGFR(G719S) = target: T18, EGFR(G719S) (Homo sapiens, UniProt P00533, G719S)
T18 construct: purchased DiscoveRx KINOMEscan
Method in brief: as §1

FLT1 = target: T19, FLT1 (Homo sapiens, UniProt P17948); conditions: read-out: % Retention on Solid Support
T19 construct: purchased DiscoveRx KINOMEscan
Method in brief: as §1

IRAK3 = target: T20, IRAK3 (Homo sapiens, UniProt Q9Y616); conditions: read-out: % Retention on Solid Support
T20 construct: purchased DiscoveRx KINOMEscan
Method in brief: as §1

TRKC = target: T21, TRKC (Homo sapiens, UniProt Q16288); conditions: read-out: % Retention on Solid Support
T21 construct: purchased DiscoveRx KINOMEscan
Method in brief: as §1

MYLK2 = target: T22, MYLK2 (Homo sapiens, UniProt Q9H1R3); conditions: read-out: % Retention on Solid Support
T22 construct: purchased DiscoveRx KINOMEscan
Method in brief: as §1

TBK1 = target: T23, TBK1 (Homo sapiens, UniProt Q9UHD2); conditions: read-out: % Retention on Solid Support
T23 construct: purchased DiscoveRx KINOMEscan
Method in brief: as §1

T21 sequence (Q16288 32-839): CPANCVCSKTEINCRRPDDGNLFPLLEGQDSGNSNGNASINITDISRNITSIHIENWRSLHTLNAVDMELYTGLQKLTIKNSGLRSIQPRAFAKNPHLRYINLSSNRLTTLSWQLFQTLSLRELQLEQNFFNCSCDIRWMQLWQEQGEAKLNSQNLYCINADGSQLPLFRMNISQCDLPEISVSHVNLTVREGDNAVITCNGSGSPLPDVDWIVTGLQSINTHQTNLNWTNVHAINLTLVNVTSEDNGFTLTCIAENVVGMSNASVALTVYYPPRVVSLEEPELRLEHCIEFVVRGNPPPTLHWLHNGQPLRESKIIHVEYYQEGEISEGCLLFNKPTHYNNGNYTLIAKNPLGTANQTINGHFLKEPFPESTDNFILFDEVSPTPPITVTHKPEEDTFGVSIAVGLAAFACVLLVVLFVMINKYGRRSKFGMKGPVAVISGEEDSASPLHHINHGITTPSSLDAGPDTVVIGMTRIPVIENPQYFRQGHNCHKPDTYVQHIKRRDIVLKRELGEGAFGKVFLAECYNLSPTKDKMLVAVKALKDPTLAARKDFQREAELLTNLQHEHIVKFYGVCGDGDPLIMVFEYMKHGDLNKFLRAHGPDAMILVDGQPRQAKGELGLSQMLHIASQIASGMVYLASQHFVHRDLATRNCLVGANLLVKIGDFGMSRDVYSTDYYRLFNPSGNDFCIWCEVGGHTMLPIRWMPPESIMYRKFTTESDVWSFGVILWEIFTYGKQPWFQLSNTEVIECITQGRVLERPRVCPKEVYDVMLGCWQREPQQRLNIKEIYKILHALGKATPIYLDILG
T1 sequence (P54753 34-998): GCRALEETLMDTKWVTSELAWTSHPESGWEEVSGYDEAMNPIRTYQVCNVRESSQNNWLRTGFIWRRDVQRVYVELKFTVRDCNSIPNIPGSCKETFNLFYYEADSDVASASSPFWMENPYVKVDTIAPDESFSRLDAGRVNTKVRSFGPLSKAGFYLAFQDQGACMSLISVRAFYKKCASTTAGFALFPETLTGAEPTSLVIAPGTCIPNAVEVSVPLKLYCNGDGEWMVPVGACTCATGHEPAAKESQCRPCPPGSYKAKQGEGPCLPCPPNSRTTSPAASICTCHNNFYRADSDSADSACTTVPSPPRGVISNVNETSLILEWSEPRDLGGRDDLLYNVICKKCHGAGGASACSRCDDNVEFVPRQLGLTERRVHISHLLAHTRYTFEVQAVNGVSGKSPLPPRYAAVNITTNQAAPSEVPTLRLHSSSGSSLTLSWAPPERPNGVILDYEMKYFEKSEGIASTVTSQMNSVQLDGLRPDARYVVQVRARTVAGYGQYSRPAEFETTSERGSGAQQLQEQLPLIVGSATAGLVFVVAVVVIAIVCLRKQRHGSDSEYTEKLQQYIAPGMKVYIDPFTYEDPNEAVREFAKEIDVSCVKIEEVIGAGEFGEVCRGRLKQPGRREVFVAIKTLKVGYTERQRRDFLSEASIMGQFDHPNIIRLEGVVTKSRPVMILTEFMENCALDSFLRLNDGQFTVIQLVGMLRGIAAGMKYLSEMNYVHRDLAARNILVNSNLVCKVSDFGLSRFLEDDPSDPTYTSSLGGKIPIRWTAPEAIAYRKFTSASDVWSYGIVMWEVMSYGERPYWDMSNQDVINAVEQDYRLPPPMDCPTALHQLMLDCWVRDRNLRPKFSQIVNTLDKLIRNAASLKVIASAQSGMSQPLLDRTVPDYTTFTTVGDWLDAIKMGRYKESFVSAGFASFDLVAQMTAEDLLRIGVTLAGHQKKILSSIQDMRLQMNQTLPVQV
T6 sequence (P07332 whole entry): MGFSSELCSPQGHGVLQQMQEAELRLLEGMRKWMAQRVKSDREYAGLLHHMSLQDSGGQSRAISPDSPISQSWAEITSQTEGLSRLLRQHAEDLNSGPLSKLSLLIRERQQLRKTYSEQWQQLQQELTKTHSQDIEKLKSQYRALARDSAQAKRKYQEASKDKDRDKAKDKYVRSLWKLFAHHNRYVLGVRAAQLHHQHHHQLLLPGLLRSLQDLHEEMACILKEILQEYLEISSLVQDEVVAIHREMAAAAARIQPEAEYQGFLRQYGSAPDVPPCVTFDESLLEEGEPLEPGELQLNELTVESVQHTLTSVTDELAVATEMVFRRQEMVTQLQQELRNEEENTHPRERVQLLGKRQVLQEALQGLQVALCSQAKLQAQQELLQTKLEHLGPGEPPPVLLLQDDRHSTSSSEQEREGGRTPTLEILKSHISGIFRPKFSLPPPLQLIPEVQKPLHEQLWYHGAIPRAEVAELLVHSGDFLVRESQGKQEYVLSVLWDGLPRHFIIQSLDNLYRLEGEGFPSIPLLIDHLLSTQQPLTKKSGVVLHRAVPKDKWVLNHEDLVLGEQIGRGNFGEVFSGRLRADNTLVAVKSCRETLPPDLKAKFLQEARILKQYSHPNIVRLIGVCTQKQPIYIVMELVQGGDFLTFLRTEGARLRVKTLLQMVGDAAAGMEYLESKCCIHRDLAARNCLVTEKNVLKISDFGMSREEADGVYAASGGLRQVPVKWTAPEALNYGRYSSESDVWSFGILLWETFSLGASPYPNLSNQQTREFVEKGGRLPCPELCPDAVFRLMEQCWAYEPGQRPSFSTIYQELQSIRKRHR
T3 sequence (Q9Y243 whole entry): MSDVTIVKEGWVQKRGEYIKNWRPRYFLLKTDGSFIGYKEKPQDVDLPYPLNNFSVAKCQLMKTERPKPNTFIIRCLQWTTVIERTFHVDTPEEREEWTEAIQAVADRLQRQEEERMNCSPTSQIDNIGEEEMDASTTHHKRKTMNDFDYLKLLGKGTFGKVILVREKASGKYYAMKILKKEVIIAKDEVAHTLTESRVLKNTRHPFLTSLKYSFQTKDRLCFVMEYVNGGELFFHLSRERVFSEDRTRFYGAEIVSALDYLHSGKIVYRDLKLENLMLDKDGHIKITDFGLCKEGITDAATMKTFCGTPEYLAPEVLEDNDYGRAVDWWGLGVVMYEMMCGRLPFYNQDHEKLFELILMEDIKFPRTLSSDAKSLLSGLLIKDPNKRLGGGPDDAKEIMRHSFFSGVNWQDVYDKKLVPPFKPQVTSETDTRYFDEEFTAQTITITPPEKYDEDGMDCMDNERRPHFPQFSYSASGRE
T19 sequence (P17948 27-1338): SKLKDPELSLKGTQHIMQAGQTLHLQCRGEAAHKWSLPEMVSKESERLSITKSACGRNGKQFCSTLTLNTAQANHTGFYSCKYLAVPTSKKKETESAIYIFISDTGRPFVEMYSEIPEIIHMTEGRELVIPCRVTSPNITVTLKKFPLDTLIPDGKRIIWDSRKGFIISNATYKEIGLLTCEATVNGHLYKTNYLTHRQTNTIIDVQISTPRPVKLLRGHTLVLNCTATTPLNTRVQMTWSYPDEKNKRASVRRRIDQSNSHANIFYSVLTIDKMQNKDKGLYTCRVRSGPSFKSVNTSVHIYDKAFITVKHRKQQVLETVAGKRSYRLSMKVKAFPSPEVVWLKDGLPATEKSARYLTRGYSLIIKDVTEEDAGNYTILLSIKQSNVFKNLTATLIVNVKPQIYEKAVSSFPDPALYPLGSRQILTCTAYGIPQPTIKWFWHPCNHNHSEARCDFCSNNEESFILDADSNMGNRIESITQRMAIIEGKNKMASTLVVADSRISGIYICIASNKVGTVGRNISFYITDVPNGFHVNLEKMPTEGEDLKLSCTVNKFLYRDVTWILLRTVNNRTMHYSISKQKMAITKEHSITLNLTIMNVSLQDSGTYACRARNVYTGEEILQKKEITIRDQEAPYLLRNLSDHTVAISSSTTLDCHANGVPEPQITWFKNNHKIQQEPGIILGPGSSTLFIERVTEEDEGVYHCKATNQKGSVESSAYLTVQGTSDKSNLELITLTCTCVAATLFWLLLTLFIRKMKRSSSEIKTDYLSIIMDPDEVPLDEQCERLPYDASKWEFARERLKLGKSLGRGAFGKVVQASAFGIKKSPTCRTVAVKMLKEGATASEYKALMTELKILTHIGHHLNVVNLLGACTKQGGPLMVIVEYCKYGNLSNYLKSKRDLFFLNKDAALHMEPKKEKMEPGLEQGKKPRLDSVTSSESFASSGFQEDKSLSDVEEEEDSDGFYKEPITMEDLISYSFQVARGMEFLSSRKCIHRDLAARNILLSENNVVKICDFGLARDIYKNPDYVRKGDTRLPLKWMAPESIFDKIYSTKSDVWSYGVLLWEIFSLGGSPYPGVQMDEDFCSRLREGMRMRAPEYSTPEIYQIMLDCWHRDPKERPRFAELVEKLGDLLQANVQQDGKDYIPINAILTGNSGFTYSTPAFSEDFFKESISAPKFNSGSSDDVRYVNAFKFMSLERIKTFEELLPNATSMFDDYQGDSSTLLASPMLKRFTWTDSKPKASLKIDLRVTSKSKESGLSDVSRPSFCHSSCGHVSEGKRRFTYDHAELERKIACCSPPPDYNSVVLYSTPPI
T17 sequence (Q9BWU1 whole entry): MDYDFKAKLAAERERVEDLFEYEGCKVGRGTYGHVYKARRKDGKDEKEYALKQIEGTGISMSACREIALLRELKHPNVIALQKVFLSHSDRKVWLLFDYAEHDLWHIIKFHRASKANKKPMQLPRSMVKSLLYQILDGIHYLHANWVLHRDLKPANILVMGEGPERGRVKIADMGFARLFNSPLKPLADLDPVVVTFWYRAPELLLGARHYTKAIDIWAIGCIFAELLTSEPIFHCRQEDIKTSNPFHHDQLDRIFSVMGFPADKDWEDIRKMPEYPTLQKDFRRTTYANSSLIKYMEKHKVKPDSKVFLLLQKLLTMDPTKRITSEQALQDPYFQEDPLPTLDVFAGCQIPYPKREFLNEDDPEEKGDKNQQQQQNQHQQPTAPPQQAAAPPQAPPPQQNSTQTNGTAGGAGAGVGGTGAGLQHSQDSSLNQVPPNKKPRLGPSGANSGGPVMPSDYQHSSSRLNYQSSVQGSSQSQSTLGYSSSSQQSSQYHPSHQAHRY

Compound: N[C@H]1CC[C@H](Nc2cc(-c3cccc(NCc4cccc(F)c4)n3)c(Cl)cn2)CC1 [i-CDK9, N2′-(trans-4-aminocyclohexyl)-5′-chloro-N6-(3-fluorobenzyl)-2,4′-bipyridine-2′,6-diamine]
- remaining binding at 1 µM (EPHB3; 1 µM i-CDK9): 100%
- remaining binding at 10 µM (EPHB3; 10 µM i-CDK9): 95%
- remaining binding at 1 µM (PIM3; 1 µM i-CDK9): 100%
- remaining binding at 10 µM (PIM3; 10 µM i-CDK9): 23%
- remaining binding at 1 µM (AKT3; 1 µM i-CDK9): 72%
- remaining binding at 10 µM (AKT3; 10 µM i-CDK9): 87%
- remaining binding at 1 µM (FLT3(N841I); 1 µM i-CDK9): 48%
- remaining binding at 10 µM (FLT3(N841I); 10 µM i-CDK9): 72%
- remaining binding at 1 µM (WEE1; 1 µM i-CDK9): 100%
- remaining binding at 10 µM (WEE1; 10 µM i-CDK9): 100%
- remaining binding at 1 µM (FES; 1 µM i-CDK9): 97%
- remaining binding at 10 µM (FES; 10 µM i-CDK9): 90%
- remaining binding at 1 µM (TIE1; 1 µM i-CDK9): 85%
- remaining binding at 10 µM (TIE1; 10 µM i-CDK9): 100%
- % Retention on Solid Support (JNK2; 1 µM i-CDK9): 98%
- % Retention on Solid Support (JNK2; 10 µM i-CDK9): 78%
- remaining binding at 1 µM (ERBB2; 1 µM i-CDK9): 88%
- remaining binding at 10 µM (ERBB2; 10 µM i-CDK9): 100%
- % Retention on Solid Support (MLK3; 1 µM i-CDK9): 85%
- % Retention on Solid Support (MLK3; 10 µM i-CDK9): 100%
- remaining binding at 1 µM (ERK1; 1 µM i-CDK9): 100%
- remaining binding at 10 µM (ERK1; 10 µM i-CDK9): 93%
- remaining binding at 1 µM (TRKA; 1 µM i-CDK9): 100%
- remaining binding at 10 µM (TRKA; 10 µM i-CDK9): 89%
- remaining binding at 1 µM (PRKCD; 1 µM i-CDK9): 98%
- remaining binding at 10 µM (PRKCD; 10 µM i-CDK9): 70%
- remaining binding at 1 µM (PRKD1; 1 µM i-CDK9): 55%
- remaining binding at 10 µM (PRKD1; 10 µM i-CDK9): 20%
- remaining binding at 1 µM (NEK1; 1 µM i-CDK9): 70%
- remaining binding at 10 µM (NEK1; 10 µM i-CDK9): 100%
- remaining binding at 1 µM (SRPK3; 1 µM i-CDK9): 100%
- remaining binding at 10 µM (SRPK3; 10 µM i-CDK9): 100%
- % Retention on Solid Support (CDK11; 1 µM i-CDK9): 94%
- % Retention on Solid Support (CDK11; 10 µM i-CDK9): 100%
- % Retention on Solid Support (EGFR(G719S); 1 µM i-CDK9): 100%
- % Retention on Solid Support (EGFR(G719S); 10 µM i-CDK9): 100%
- remaining binding at 1 µM (FLT1; 1 µM i-CDK9): 100%
- remaining binding at 10 µM (FLT1; 10 µM i-CDK9): 81%
- remaining binding at 1 µM (IRAK3; 1 µM i-CDK9): 100%
- remaining binding at 10 µM (IRAK3; 10 µM i-CDK9): 88%
- remaining binding at 1 µM (TRKC; 1 µM i-CDK9): 63%
- remaining binding at 10 µM (TRKC; 10 µM i-CDK9): 95%
- remaining binding at 1 µM (MYLK2; 1 µM i-CDK9): 100%
- remaining binding at 10 µM (MYLK2; 10 µM i-CDK9): 88%
- remaining binding at 1 µM (TBK1; 1 µM i-CDK9): 100%
- remaining binding at 10 µM (TBK1; 10 µM i-CDK9): 100%
